This is an account of results in US20040248919A1, “Fluorinated trienes and their use as rxr modulators” (priority 2001, published 2004).

Structures are written as SMILES. Like-named read-outs stand apart in the source and are kept apart here.

Usually IC50 stands for the concentration at which inhibition is half-maximal.

The target of this assay is T1, RXRα:RXRα homodimer (Homo sapiens, UniProt P19793).
T1 sequence (P19793 1-462): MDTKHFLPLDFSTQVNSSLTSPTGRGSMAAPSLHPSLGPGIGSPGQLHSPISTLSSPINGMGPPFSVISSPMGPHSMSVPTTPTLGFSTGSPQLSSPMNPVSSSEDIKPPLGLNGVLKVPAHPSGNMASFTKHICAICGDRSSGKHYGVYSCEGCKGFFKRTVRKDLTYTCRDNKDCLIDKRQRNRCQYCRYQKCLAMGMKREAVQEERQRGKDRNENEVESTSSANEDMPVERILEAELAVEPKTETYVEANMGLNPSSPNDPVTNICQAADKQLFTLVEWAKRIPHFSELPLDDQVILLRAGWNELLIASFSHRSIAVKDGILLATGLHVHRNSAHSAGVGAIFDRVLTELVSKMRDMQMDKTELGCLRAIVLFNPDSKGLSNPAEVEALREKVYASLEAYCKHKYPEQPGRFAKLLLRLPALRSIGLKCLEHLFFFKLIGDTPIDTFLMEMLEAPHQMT
Put plainly: RXR homodimer co-transfection assay (antagonist) in CV-1 cells. In kind it is cell-based. The conditions noted are these: for IC50: in the presence of 3.2×10^−8 M LGD1069, read-out: RXR Antagonist CTF IC50. From the text:
In the co-transfection assay, cloned cDNA for one or more IRs (e.g. human RARα, RXRα, or PPARγ), alone or in combination (i.e. for heterodimer assays) under the control of a constitutive promoter (e.g., the SV 40, RSV or CMV promoter) is introduced by transfection (a procedure to introduce exogenous genes into cells) into a background cell substantially devoid of endogenous IRs. These introduced gene(s) direct the recipient cells to make the IR protein(s) of interest. A further gene is also introduced (co-transfected) into the same cells in conjunction with the IR gene(s). This further gene, comprising the cDNA for a reporter protein, such as firefly luciferase (LUC), controlled by an appropriate hormone responsive promoter containing a hormone response element (HRE). This reporter plasmid functions as a reporter for the transcriptional-modulating activity of the target IR(s). Thus, the reporter acts as a surrogate for the products (mRNA then protein) normally expressed by a gene under control of the target receptor(s) and their native hormone(s). The co-transfection assay can detect small molecule agonists or antagonists, including partial agonists and antagonist, of target IRs. Exposing the transfected cells to an agonist ligand compound increases reporter activity in the transfected cells. This activity can be conveniently measured, e.g., by increasing luciferase production and enzymatic activity, which reflects compound-dependent, IR-mediated increases in reporter transcription. […] Increasing concentrations of an antagonist will decrease the reporter signal (e.g., luciferase production). The co-transfection assay is therefore useful to detect both agonists and antagonists of specific IRs. Furthermore, it determines not only whether a compound interacts with a particular IR, but whether this interaction mimics (agonizes) or blocks (antagonizes) the effects of native or synthetic regulatory molecules on target gene expression, as well as the specificity and strength of this interaction. […] To determine agonist and antagonist activity of the modulator compounds of the present invention, the CV-1 cells were transiently transfected by calcium phosphate coprecipitation according to the procedure of Berger et al., 41 J. Steroid Biochem. Mol. Biol., 733 (1992) with the receptor expressing plasmid […] et al., 345 Nature, 224 (1990), the disclosures of which are herein incorporated by reference at a concentration of 10 ng/well. The receptor expression plasmid was cotransfected along with a reporter plasmid at 50 ng/well, the internal control plasmid pRS-β-Gal at 50 ng/well and filler DNA, pGEM, at 90 ng/well. The reporter plasmid […], which contains an RXRE (retinoid X receptor response element, as described in Mangelsdorf et al., 66 Cell, 555 (1991), the disclosure of which is herein incorporated by reference, was used in transfections for the RXR homodimer assay. This reporter plasmid contains the cDNA for firefly luciferase (LUC) under the control of a promoter containing the RXR response element. As noted above, pRS-β-Gal, coding for constitutive expression of E. coli β-galactosidase (β-Gal), was included as an internal control for evaluation of transfection efficiency and compound toxicity. Six hours after transfection, media was removed and the cells were washed with phosphate-buffered saline (PBS). Media containing compounds of the present invention in concentrations ranging from 10^-10 to 10^-5 M were added to the cells. […] Ligand Pharmaceuticals, Inc.), compounds with known agonist activity on RXRs, were added at similar concentrations to provide a reference point for analysis of the agonist activity of the compounds of the present invention. […] Ligand Pharmaceuticals, Inc.). Retinoid purity was established as greater than 99% by reverse phase high-performance liquid chromatography. Retinoids were dissolved in dimethylsulfoxide for use in the transcriptional activation assays. Two to three replicates were used for each sample. […]

Setting [1] is: CV-1 cells, antagonist efficacy as % of maximal inhibition, read-out: RXR Antagonist CTF % Efficacy.

Regarding `C/C(=C/C=C(F)/C(C)=C/C(=O)O)c1cc(C(C)(C)C)cc(C(C)(C)C)c1OCC(F)F` [Example 1, 7-[3,5-di-tert-butyl-2-(2,2-difluoroethoxy)-phenyl]4-fluoro-3-methyl-octa-2,4,6-trienoic acid], the Emax under setting [1] turned out to be 100%. For the same molecule, where the note is “CV-1 cells”, the 50% inhibitory concentration (IC50) was 4.84 µM. The matching figures for `C/C(=C/C(F)=C/C(C)=C/C(=O)O)c1cc(C(C)(C)C)cc(C(C)(C)C)c1OCC(F)F` [Example 2, 7-[3,5-Di-tert-butyl-2-(2,2-difluoroethoxy)-phenyl]-5-fluoro-3-methyl-octa-2,4,6-trienoic acid]: 100% and 8.71 µM. Taken in the same sequence, the figures for `CCCCOc1c(\C(C)=C/C=C/C(=C/C(=O)O)C(F)(F)F)cc(C(C)C)cc1C(C)C` [Example 3, (2Z,4E,6Z)-7-(2-Butoxy-3,5-diisopropylphenyl)-3-trifluoromethyl-octa-2,4,6-trienoic acid] were 83% and 0.921 µM. In the case of `CCCCOc1c(\C(C)=C/C=C/C(=C\C(=O)O)C(F)(F)F)cc(C(C)C)cc1C(C)C` [Example 4, (2E,4E,6Z)-7-(2-Butoxy-3,5-diisopropylphenyl)-3-trifluoromethyl-octa-2,4,6-trienoic acid], the Emax under setting [1] stood at 29%.

In the case of `CCOc1c(\C(=C/C=C/C(C)=C/C(=O)O)C(F)(F)F)cc(C(C)(C)C)cc1C(C)(C)C` [Example 5, (2E,4E,6E)-3-methyl-7-(2-ethoxy-3,5-di-tert-butylphenyl)-8,8,8-trifluoroocta-2,4,6-trienoic acid], the Emax (CV-1, read-out: RXR Antagonist CTF % Efficacy) is 30%. In addition, under “CV-1 cells”, the concentration for half-maximal inhibition (IC50) turned out to be 0.038 µM.
